In ChEMBL document CHEMBL5338769, “Discovery of Norisoboldine Analogue III11 as a Novel and Potent Aryl Hydrocarbon Receptor Agonist for the Treatment of Ulcerative Colitis” (J Med Chem, 2023):
Activity calls are given as the source filed them. The rule behind the calls is not given here.

Tests used:
[1] = MRT in Sprague-Dawley rat at 3 mg/kg, iv measured upto 1440 min by LC-MS/MS analysis; assay type: ADME, organism-based; conditions: in vivo
[2] = Induction of cell differentiation in C57BL/6 mouse naive regulatory T cells assessed as increase in cell frequency at 10 uM incubated for 72 hrs by flow cytometric analysis (reference value: 24.9%); assay type: functional
Mus musculus [3] = assay: Anti-colitis activity against DSS-induced ulcerative colitis C57BL/6 mouse model assessed as decrease in colon MPO activity at 10 to 20 mg/kg, po administered once a day for 10 days; assay type: functional, organism-based; conditions: dose 10-20 mg/kg, time 10.0 day
Mus musculus [4] = assay: Anti-colitis activity against DSS-induced ulcerative colitis C57BL/6 mouse model assessed as increase in Foxp3 mRNA level by measuring fold change at 10 mg/kg, po administered once a day for 10 days by qRT-PCR analysis; assay type: functional; conditions: time 10 day
[5] = Induction of cell differentiation in C57BL/6 mouse naive regulatory T cells assessed as increase in IL-10 mRNA level by measuring fold change at 3 uM incubated for 72 hrs by qRT-PCR analysis; assay type: functional
Mus musculus [6] = assay: Anti-colitis activity against DSS-induced ulcerative colitis C57BL/6 mouse model assessed as increase in Foxp3 mRNA level at 20 mg/kg, po administered once a day for 10 days by qRT-PCR analysis; assay type: functional, organism-based; conditions: time 10.0 day
[7] = Cmax in Sprague-Dawley rat at 30 mg/kg, po measured at 120 min by LC-MS/MS analysis; assay type: ADME, organism-based; set-up: dose 30 mg/kg, time 120 min, route po; conditions: in vivo
[8] = target: T1, Aryl hydrocarbon receptor (Mus musculus, UniProt P30561); assay: Activation of AhR transcription in C57BL/6 mouse naive T cells assessed as increase in CYP1A1 mRNA expression by measuring fold change at 3 uM by qRT-PCR analysis relative to control; assay type: cell-based; conditions: T-cell, read-out: FC
T1 sequence (P30561 whole entry): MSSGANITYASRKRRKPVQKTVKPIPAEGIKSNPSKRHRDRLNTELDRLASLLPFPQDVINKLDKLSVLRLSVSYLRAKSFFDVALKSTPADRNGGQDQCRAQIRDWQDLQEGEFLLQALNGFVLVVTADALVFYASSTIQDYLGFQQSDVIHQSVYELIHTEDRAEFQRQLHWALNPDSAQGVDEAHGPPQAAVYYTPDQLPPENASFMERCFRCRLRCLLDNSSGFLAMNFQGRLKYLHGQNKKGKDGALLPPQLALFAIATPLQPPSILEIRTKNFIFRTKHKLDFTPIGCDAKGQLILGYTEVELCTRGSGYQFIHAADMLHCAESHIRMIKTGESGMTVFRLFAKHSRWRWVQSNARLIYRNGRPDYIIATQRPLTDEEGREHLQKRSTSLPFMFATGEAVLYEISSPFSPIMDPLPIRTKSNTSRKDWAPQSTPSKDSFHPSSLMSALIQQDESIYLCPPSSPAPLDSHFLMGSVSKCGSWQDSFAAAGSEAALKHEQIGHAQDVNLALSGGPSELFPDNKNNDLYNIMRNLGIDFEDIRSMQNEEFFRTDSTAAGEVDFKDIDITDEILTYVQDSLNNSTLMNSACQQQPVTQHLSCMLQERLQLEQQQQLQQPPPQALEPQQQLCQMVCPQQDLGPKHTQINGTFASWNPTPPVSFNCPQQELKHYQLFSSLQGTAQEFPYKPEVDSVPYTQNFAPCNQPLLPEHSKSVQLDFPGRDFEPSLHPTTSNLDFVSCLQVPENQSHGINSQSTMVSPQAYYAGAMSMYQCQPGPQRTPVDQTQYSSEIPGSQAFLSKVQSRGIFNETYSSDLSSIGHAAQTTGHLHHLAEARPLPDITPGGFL

[9] = Half-life in Sprague-Dawley rat at 3 mg/kg, iv measured upto 1440 min by LC-MS/MS analysis; assay type: ADME, organism-based; conditions: in vivo
[10] = MRT in Sprague-Dawley rat at 30 mg/kg, po measured upto 1440 min by LC-MS/MS analysis; assay type: ADME, organism-based; conditions: in vivo
[11] = Induction of cell differentiation in C57BL/6 mouse naive regulatory T cells assessed as increase in cell frequency at 1 uM incubated for 72 hrs by flow cytometric analysis (reference value: 24.9%); assay type: functional
[12] = target: T1, Aryl hydrocarbon receptor; assay: Binding affinity to AhR in mouse EL4 cells assessed as thermal stabilization at 3 uM at 37 to 67 degreeC incubated for 24 hrs thermal shift assay based Western blot analysis; assay type: cell-based; conditions: el4, 24 h
[13] = Upregulation of GATA3 expression level in DSS-induced ulcerative colitis C57BL/6 mouse model assessed as fold change at 20 mg/kg, po administered once a day for 10 days by qRT-PCR analysis; assay type: functional; conditions: time 10 day
[14] = Half-life in Sprague-Dawley rat at 30 mg/kg, po measured upto 1440 min by LC-MS/MS analysis; assay type: ADME, organism-based; conditions: in vivo
[15] = Protein binding in rat plasma at 21.67 ug/ml of total concentration measured after 12 hrs by ultrafiltration based HPLC analysis; assay type: ADME, cell-free; conditions: at 21.67 µg/mL, read-out: PPB (converted)
[16] = Induction of cell differentiation in C57BL/6 mouse naive regulatory T cells assessed as increase in cell frequency at 0.3 uM incubated for 72 hrs by flow cytometric analysis (reference value: 24.9%); assay type: functional
[17] = Cmax in Sprague-Dawley rat at 3 mg/kg, iv measured at 120 min by LC-MS/MS analysis; assay type: ADME, organism-based; set-up: time 120 min, dose 3 mg/kg, route iv; conditions: in vivo
Mus musculus [18] = assay: Anti-colitis activity in DSS-induced ulcerative colitis C57BL/6 mouse model assessed as increase in CD4+CD25+Foxp3+ Treg cell ratio in mesenteric lymph nodes at 10 mg/kg, po administered once a day for 10 days by flow cytometric analysis (reference value: 4.5 %); assay type: functional; conditions: time 10 day
[19] = Protein binding in rat plasma at 48.02 ug/ml of total concentration measured after 12 hrs by ultrafiltration based HPLC analysis; assay type: ADME, cell-free; conditions: at 48.02 µg/mL, read-out: PPB (converted)
Mus musculus [20] = assay: Anti-colitis activity against DSS-induced ulcerative colitis C57BL/6 mouse model assessed as amelioration of mucosal architecture score by measuring ulceration in colon at 10 to 20 mg/kg, po administered once a day for 10 days by H&E staining based histopathological analysis; assay type: functional, organism-based; conditions: dose 10-20 mg/kg, time 10.0 day
[21] = AUC(0 to infinity) in Sprague-Dawley rat at 30 mg/kg, po measured upto 1440 min by LC-MS/MS analysis; assay type: ADME, organism-based; set-up: time < 1440 min, dose 30 mg/kg, route po; conditions: in vivo
[22] = Protein binding in rat plasma at 37.38 ug/ml of total concentration measured after 12 hrs by ultrafiltration based HPLC analysis; assay type: ADME, cell-free; conditions: at 37.38 µg/mL, read-out: PPB (converted)
[23] = Apparent oral clearance in Sprague-Dawley rat at 3 mg/kg, iv measured upto 1440 min by LC-MS/MS analysis; assay type: ADME, organism-based; conditions: in vivo, 24 h
[24] = AUC(0 to infinity) in Sprague-Dawley rat at 3 mg/kg, iv measured upto 1440 min by LC-MS/MS analysis; assay type: ADME, organism-based; set-up: dose 3 mg/kg, time < 1440 min, route iv; conditions: in vivo
[25] = Protein binding in rat plasma at 20.13 ug/ml of total concentration measured after 12 hrs by ultrafiltration based HPLC analysis; assay type: ADME, cell-free; conditions: at 20.13 µg/mL, read-out: PPB

Compound: COc1cc2c3c(c1)-c1ccc(O)cc1CC3NCC2 (stereo not given)
- MRT [1]: 3.07 h
- Activity [2]: 41.7%
- Activity (Mus musculus [3]): Active
- fold change (FC) (Mus musculus [4]): 1.88
- fold change (FC) [5]: 2.4
- Activity (Mus musculus [6]): Active
- Cmax [7]: 0.789 µg/mL
- fold induction at 3 µM [8]: 4.6
- half-life [9]: 2.24 h
- MRT [10]: 7.27 h
- Activity [11]: 29.9%
- Activity [12]: Active
- fold change (FC) [13]: 1.14
- half-life [14]: 2.69 h
- fraction unbound at 12 h, 21.67 ug/ml [15]: 0.149
- Activity [16]: 26.7%
- Cmax [17]: 0.396 µg/mL
- Activity (Mus musculus [18]): 7.4%
- fraction unbound at 12 h, 48.02 ug/ml [19]: 0.139
- Activity (Mus musculus [20]): Active
- AUC(0-inf) [21]: 8.52 µg·h/mL
- fraction unbound at 12 h, 37.38 ug/ml [22]: 0.491
- CL/F [23]: 0.01 mg/(ng/ml)/min
- AUC(0-inf) [24]: 0.974 µg·h/mL
- fraction unbound at 12 h, 20.13 ug/ml [25]: 0.498
